Here are results for 7 molecules from article PMC7881642, “Inducing secondary metabolite production of Aspergillus sydowii through microbial co-culture with Bacillus subtilis” (Microbial Cell Factories, 2021).

For one experiment, the system named is B. cereus. More on the design: method as in doi:10.1007/s10600-016-1885-z. Conditions: cited from earlier work.
A further experiment has as its system S. aureus. More on the design: method as in doi:10.1007/s10600-016-1885-z. Particulars: cited from earlier work.
A further experiment addresses SHP1 (Homo sapiens, UniProt P29350). The experiment can be described thus: SHP1 inhibitory activity. Type of experiment: biochemical.
The target of another experiment is T1, PTP1b (Homo sapiens, UniProt P18031).
T1 sequence (P18031 1-435): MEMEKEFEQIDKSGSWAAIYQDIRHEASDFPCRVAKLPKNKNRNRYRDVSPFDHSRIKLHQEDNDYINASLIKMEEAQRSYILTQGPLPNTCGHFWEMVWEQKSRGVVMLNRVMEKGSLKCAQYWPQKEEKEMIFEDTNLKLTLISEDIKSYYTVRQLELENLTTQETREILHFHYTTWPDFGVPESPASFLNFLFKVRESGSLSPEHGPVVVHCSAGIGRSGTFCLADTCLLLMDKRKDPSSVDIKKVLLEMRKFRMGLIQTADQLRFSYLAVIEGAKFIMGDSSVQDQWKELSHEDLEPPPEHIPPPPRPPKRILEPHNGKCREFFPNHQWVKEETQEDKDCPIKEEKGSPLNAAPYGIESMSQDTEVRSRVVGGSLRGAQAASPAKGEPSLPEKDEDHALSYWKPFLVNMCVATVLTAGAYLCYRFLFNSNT
The experiment in a line: Protein tyrosine phosphatase 1b inhibitory assay (pNPP substrate). The experiment is classed as biochemical. Conditions: 37 °C, pH 6.0. Here is the method: The PTP1b inhibitory activity of the tested compounds was measured at 37 °C using p-nitrophenyl phosphate (pNPP) as the substrate. The reaction was performed in a 96-well plate (final volume of 150 μL) and incubated for 30 min in the assay buffer (50 mM citrate (pH 6.0), 0.1 M NaCl, 1 mM EDTA, and 1 mM dithiothreitol) at 37 °C. Subsequently, the reaction was terminated by the addition of 10 M NaOH and the amount of p-nitrophenyl was determined by measuring the absorbance at 405 nm.

A further experiment deals with T2, CD45 (Homo sapiens, UniProt P08575).
T2 sequence (P08575 26-1306): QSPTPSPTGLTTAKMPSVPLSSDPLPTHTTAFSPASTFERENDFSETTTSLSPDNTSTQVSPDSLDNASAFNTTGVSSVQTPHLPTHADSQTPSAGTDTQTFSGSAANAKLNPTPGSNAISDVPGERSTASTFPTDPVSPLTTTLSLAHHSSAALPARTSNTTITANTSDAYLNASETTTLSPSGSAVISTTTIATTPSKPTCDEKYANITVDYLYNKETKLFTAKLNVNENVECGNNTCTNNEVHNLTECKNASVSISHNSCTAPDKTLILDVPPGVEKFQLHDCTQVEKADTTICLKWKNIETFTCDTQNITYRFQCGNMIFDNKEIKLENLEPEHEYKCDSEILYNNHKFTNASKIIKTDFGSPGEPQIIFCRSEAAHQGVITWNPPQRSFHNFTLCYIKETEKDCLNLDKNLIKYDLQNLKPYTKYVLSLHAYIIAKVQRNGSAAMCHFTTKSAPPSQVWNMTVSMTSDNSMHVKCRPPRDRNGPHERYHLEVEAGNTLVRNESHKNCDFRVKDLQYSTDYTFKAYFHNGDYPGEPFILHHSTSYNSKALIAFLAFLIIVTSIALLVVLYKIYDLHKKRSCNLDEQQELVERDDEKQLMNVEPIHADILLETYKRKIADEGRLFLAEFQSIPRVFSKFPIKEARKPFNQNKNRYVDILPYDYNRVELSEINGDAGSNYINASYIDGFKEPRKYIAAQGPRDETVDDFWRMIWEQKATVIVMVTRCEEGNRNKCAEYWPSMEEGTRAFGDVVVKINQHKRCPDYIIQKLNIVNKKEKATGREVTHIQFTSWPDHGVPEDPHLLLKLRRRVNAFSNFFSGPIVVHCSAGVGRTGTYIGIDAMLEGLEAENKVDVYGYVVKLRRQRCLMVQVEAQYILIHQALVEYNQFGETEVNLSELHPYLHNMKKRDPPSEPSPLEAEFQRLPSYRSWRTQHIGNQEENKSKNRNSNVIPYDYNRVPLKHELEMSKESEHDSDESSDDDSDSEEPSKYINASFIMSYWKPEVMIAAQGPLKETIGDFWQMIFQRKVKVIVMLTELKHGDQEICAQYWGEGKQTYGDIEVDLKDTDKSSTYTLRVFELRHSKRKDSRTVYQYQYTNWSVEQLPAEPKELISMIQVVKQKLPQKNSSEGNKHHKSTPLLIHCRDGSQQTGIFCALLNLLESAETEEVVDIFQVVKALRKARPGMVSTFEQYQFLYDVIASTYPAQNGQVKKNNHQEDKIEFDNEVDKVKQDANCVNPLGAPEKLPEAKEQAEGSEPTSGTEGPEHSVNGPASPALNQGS
The experiment in a line: CD45 inhibitory activity. Type of experiment: biochemical.

The test system of experiment [1] is insulin-stimulated glucose consumption. More on the design: method as in PMID 23647825. Conditions: cited from earlier work.
A further experiment concerns nematode. The experiment can be described thus: anti-nematode activity.
For another experiment, the system named is fungi. Further details: method as in PMID 23488669. Particulars: cited from earlier work.

Chain of SHP1 (P29350 whole entry): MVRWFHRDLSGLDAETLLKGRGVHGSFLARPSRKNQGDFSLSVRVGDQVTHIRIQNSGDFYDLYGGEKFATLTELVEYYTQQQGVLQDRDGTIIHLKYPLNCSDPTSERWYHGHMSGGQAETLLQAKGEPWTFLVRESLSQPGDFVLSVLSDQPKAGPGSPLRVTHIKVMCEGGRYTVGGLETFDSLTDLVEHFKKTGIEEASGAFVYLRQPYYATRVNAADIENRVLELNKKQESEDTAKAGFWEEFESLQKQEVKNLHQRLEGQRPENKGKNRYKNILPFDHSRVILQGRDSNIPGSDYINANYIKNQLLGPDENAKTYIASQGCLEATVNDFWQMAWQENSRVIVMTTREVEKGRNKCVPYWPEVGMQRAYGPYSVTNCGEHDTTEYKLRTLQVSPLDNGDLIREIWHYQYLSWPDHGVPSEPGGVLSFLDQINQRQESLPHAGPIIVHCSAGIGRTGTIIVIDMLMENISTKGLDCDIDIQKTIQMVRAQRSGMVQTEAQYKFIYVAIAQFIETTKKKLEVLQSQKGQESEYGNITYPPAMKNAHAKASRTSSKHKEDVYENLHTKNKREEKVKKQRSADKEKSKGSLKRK

Regarding `CC(C)(O)CCCC(C)(O)c1ccc(C(=O)O)cc1O` (stereo in doubt) [N4, (R)-(−)-Hydroxysydonic acid], the “MIC against B. cereus” value with B. cereus is on record as “less than 25 μM”. In the experiment with S. aureus, the “MIC against S. aureus” value was “less than 25 μM”. The IC50 on SHP1 was 15.72 ± 0.11 µM; against PTP1b, over 20 µM; at CD45 it was over 20 µM.

For `CC(C)CCC[C@](C)(O)c1ccc(CO)cc1O` [(S)-(+)-sydonol], the “effect on insulin-stimulated glucose consumption” value in experiment [1] was “potentiated”.

In the case of `Cc1cc(O)cc(O)c1C(=O)O` [N1, Orsellinic acid], the IC50 on SHP1, on PTP1b and at CD45 was over 20 µM each time.

As for `CC(C)CCC[C@](C)(O)c1ccc(C(=O)O)cc1O` [N2, Sydonic acid], the results for the half-inhibitory concentration (IC50) on SHP1, at PTP1b and at CD45 were 8.35 ± 0.35 µM, 7.97 µM and over 20 µM, respectively.

Take `CC(C)C(O)CC[C@](C)(O)c1ccc(C(=O)O)cc1O` (stereo partly drawn) [N3, (7S)-(−)-10-Hydroxysydonic acid]: the IC50 was 50 µM in the experiment on nematode, over 20 µM against SHP1, 15.88 ± 0.13 µM against PTP1b and over 20 µM on CD45.

Regarding `CC(C)CCCC(C)(O)c1ccc(C(=O)NC(CO)C(=O)O)cc1O` (centres unmarked) [N7, Serine sydonate], the IC50 against SHP1 worked out at 11.68 ± 0.08 µM; on PTP1b it was 14.2 ± 0.21 µM; against CD45, 16 µM.

Turning to `C[C@@H]1CCC/C=C/C=C/[C@H](O)C[C@@H](O)C/C=C\C=C\[C@@H](O)C/C=C/C=C\C(=O)O1` [N13, Macrolactin A], the IC50 against SHP1 is 14.6 ± 0.39 µM; on PTP1b, over 20 µM; on CD45 it was 17.9 µM. Also, in the experiment with fungi, the “antifungal activity MIC” value is 40 to 300 µM.

One may read the IC50 as the concentration that gives 50% inhibition. Low values mean greater potency, high ones weaker potency.
